Test results reported in patent US11878074B2, “Methods of use of emulsion formulations of an NK-1 receptor antagonist” (Heron Therapeutics, Inc., priority 2016, dated 2024).

Assay: Pharmacokinetics of aprepitant emulsion, intravenous injection, plasma LC-MS/MS
Type: in vivo, Sprague-Dawley rats
Details: rat, i.v., equivalent to 14 mg/kg aprepitant, by the 3-hour time point
Protocol: Blood from all rats was collected at the appropriate time intervals and processed to plasma by centrifugation. Plasma samples were analyzed by LC-MS/MS for aprepitant and fosaprepitant, as appropriate. […] The curves indicate the initial aprepitant level reached immediately after injection of the aprepitant emulsion was almost 3 times higher than the initial aprepitant level reached immediately after injection of the fosaprepitant solution.

- Plasma levels of aprepitant, emulsion versus fosaprepitant solution: essentially the same
SMILES: C[C@@H](O[C@H]1OCCN(Cc2nc(O)n(P(=O)(O)O)n2)[C@H]1c1ccc(F)cc1)c1cc(C(F)(F)F)cc(C(F)(F)F)c1 [fosaprepitant]
